Measurements published in PMC6058608, “Cell penetrating peptides: a comparative transport analysis for 474 sequence motifs” (Drug Delivery, 2018).

System: HeLa cells
Test: CPP uptake experiment: cellular fluorescence of FAM-labeled CPPs
Format: cell-based, human
Settings: FAM not coupled to a CPP; mean value and standard error of two measurements
Protocol: The human cervix adenocarcinoma cell line HeLa was obtained from I.A.Z. (Munich, Germany). As cell growth medium DMEM/Ham’s F-12 (1:1) supplemented with 2 mM L-glutamine, 10% fetal bovine serum, and 1% penicillin/streptomycin (all Capricorn Scientific, Ebsdorfergrund, Germany, formerly PAA Laboratories) was used, and cells were cultured at 37 °C and 5% CO2. They were passaged before reaching confluence; for the experiments, cells at passages p8–p20 were used. For testing uptake efficiency and cytotoxicity of CPPs, cells were seeded in 96-well µ-plates (ibidi, Munich, Germany) at a concentration of 6 × 10^4 cells per well and incubated for 48 h to reach confluence before performing the experiments.
All solutions used were warmed to 37 °C, with CPP incubation performed at 37 °C and 5% CO2. CPP working solutions were prepared in 96-well polypropylene plates (Corning, Amsterdam, Netherlands) directly before incubation by diluting the 50 µM FAM-labeled CPP stock solutions to 10 µM with cell growth medium. The confluent HeLa cells in the 96-well µ-plates were exposed to 100 µl of a 10 µM CPP working solution per well for 90 min. Cell growth medium served as negative control. After incubation, the cells were washed twice with 300 µl of CM-PBS (PAA Laboratories), then 100 µl CM-PBS was added before determining fluorescence intensities in a plate reader (SpectraMax M5, Molecular Devices, Sunnyvale, CA) at an excitation wavelength of 495 nm and an emission wavelength of 530 nm. Transmission images of the treated cell layers were taken using a MORE microscope (TILL Photonics, Munich, Germany) equipped with a 10×/0.45 objective (Zeiss, Jena, Germany), an FITC filterset (ET480_40x/ET535_50 m/T510LPXRXT, Chroma, Rockingham, NC) and LED and oligochrome light source (FEI). Images were acquired using a Stingray F-145B CCD camera (Allied Vision Tech., Stadtroda, Germany) via live acquisition software (v2.2.2, FEI).

Which “Uptake of FAM without CPP into the HeLa layer” value does the source give for “5(6)-carboxyfluorescein [FAM, reference compound]” here?
Its value is 14.3 ± 8.1 RFU.

Same assay, conditions: HeLa cells after incubation with 10 µM FAM-labeled CPP, 90 min, 37 °C; mean of two experiments (Table 1)

For LNSAGYLLGKINLKALAALAKKIL [compound 473], which “Fluorescence (RFU)” value is on record?
Its value is 422.13 RFU.

Which “Fluorescence (RFU)” value does the source give for LLKKRKVVRLIKFLLK [compound 343] here?
Its value is 435.30 RFU.

How did the “Fluorescence (RFU)” value turn out when KLAAALLKKWKKLAAALL [compound 375] was run?
Its value is 335.89 RFU.

CWKKKKKKKKKKKKKKKKKK [compound 429] was tested. Which “Fluorescence (RFU)” value did it give?
Its value is 417.94 RFU.

How did the “Fluorescence (RFU)” value turn out when GLWRALWRGLRSLWKLKRKV [compound 426] was run?
The value was 347.66 RFU.

With KLALKLALKALKAALKLA [compound 405] as the substance, how does the “Fluorescence (RFU)” value read?
The value was 440.41 RFU.

Which “Fluorescence (RFU)” value does the source give for “VKRKKKPALWKTLLKKVLKA [compound 416, CPP derived from the antimicrobial peptide dermaseptin S4 attached to a nuclear localization signal, FAM-labeled]” here?
The value was 925.42 RFU.

“KKKKKKKKKKKKKKKKKKK [compound 412, designed model peptide, FAM-labeled CPP]” was tested. Which “Fluorescence (RFU)” value did it give?
Its value is 632.01 RFU.

For RQARRNRRRALWKTLLKKVLKA [compound 446], which “Fluorescence (RFU)” value is on record?
Its value is 450.97 RFU.

With LIRLWSHLIHIWFQNRRLKWKKK [compound 466] as the substance, how does the “Fluorescence (RFU)” value read?
Its value is 425.60 RFU.

WLRRIKAWLRRIKALNRQLGVAA [compound 471] was tested. Which “Fluorescence (RFU)” value did it give?
The value was 1011.42 RFU.

For GLFKALLKLLKSLWKLLLKA [compound 431], which “Fluorescence (RFU)” value is on record?
The value was 326.66 RFU.

With YTAIAWVKAFIRKLRK [compound 351] as the substance, how does the “Fluorescence (RFU)” value read?
The value was 401.31 RFU.

For KLALKLALKAWKAALKLA [compound 372], which “Fluorescence (RFU)” value is on record?
Its value is 309.34 RFU.

How did the “Fluorescence (RFU)” value turn out when KALAKALAKLWKALAKAA [compound 373] was run?
The value was 345.58 RFU.

“KTVLLRKLLKLLVRKI [compound 342, designed model peptide, FAM-labeled CPP]” was tested. Which “Fluorescence (RFU)” value did it give?
Its value is 855.56 RFU.

How did the “Fluorescence (RFU)” value turn out when GLWRALWRGLRSLWKKKRKV [compound 427] was run?
The value was 375.17 RFU.

“KLALKLALKALKAALK [compound 296, designed model peptide, FAM-labeled CPP]” was tested. Which “Fluorescence (RFU)” value did it give?
The value was 478.40 RFU.

With PKKKRKVALWKTLLKKVLKA [compound 415] as the substance, how does the “Fluorescence (RFU)” value read?
Its value is 390.81 RFU.

How did the “Fluorescence (RFU)” value turn out when GLWRALWRALRSLWKLKRKV [compound 425] was run?
The value was 384.64 RFU.
